Laboratory results from patent US8883754B2, “Method for inhibiting angiogenesis” (Ewha University—Industry Collaboration Foundation, priority 2009, dated 2014).
Read-outs that look alike come from different tables or passages of the source.

What was measured:
[1] = system: intracellular ROS (H2O2) level in HAECs; assay: Detection and measurement of reactive oxygen species (CM-H2DCFDA, DCF fluorescence); assay type: cell-based, human; conditions: for level of ROS/H2O2 elevated by the Prx II knockdown: HAECs with Prx II knockdown
Method: HAECs were rinsed with Endothelial Basal Medium without phenol red (EBM, Lonza) and immediately incubated with 5 μM 5,6-chloromethyl-2′,7′-dichlorodihydrofluorescein diacetate (CM-H2DCFDA) (Molecular Probe) at 37° C. for 5 minutes. After briefly washing the cell with EBM, the fluorescence images were taken by fluorescence microscope (Axiovert 200 Basic standard, Zeiss, Germany). The relative DCF fluorescence was calculated by averaging the levels of fluorescence from 50-80 cells after subtracting the background fluorescence.

VEGFR-2 RTK = biological target: T1, VEGFR-2 RTK (Homo sapiens, UniProt P35968); assay: VEGFR-2 in vitro kinase assay on immunoprecipitates; assay type: cell-based
T1 construct: The VEGFR-2 was immunoprecipitated from Prx II siRNA-transfected or H2O2 (100 μM)-pretreated HAECs; endogenous in cells; host or cells: HAECs (human aortic endothelial cells)
Method: At the appropriate time, the culture media were aspirated and cells were lysed in extraction buffer (TEB) containing 20 mM Hepes (pH 7.0), 1% Triton X-100, 150 mM NaCl, 10% glycerol, 1 mM EDTA, 2 mM EGTA, 1 mM DTT, 5 mM Na3VO4, 5 mM NaF, 1 mM AEBSF, aprotinin (5 μg/mL), and leupeptin (5 μg/mL). After brief centrifugation, the protein content of samples was quantified using the Bradford reagent (Bio-Rad). For immunoprecipitation, the resulting supernatants (120 μg proteins) were pre-cleaned with 10 μL of protein-A/G Sepharose 4 Fast Flow beads (Amersham Biosciences) for 1 hr, incubated overnight with 2 μg of the indicated antibodies, and further incubated at 4° C. for 3 hrs with 20 μL of protein-A/G Sepharose beads. Immunocomplexes were washed three times with 1 mL of TEB and then subjected to either in vitro kinase assay or immunoblotting.
The in vitro kinase assay was done as previously described in Choi, M. H. et al., (Nature 2005 435 (7040), 347-353). Briefly, the immunocomplexes precipitated with rabbit anti-flk-1(sc-504) antibody were incubated with 30 μL of kinase buffer (20 mM HEPES pH 7.5, 20 mM MgCl2, 20 mM β-glycerophosphate, and 200 μM Na3VO4) containing […] of γ-^32[P]-ATP and 0.5 μg GST-PLCγ1 at 30° C. for 10 minutes. The reaction was stopped by the addition of a SDS sample buffer. The samples were then boiled and separated on SDS denaturing gel. […]

VEGF-VEGFR-2 signaling = conditions: for VEGFR-2 activation in response to VEGF in Prx II knockdown cells: HAECs with Prx II knockdown
Excerpt: Sequences of the four siRNA duplexes for human Prx II were 5′-[…]-3′ (#1, SEQ ID NO. 1), 5′-[…]-3′ (#2, SEQ ID NO. 2), 5′-[…]-3′ (#3, SEQ ID NO. 3) and 5′-[…]-3′ (#4, SEQ ID NO. 4). The Prx II siRNA duplex #1 was mainly used for the study. Sequences of the four siRNA duplexes for human Prx I were 5′-[…]-3′ (#1, SEQ ID NO. 5), 5′-[…]-3′ (#2, SEQ ID NO. 6), 5′-[…]-3′ (#3, SEQ ID NO. 7) and 5′-[…]-3′ (#4, SEQ ID NO. 8); those for human GPxl, 5′-[…]-3′ (#1, SEQ ID NO. 9), 5′-[…]-3′ (#2, SEQ ID NO. 10), 5′-[…]-3′ (#3, SEQ ID NO. 11) and 5′-[…]-3′ (#4, SEQ ID NO. 12). A Prx III-specific siRNA was previously described in Chang, T. S. et al., (J Biol Chem 2004 279 (40), 41975-41984). The firefly luciferase siRNA were purchased or synthesized from Dharmacon. SiRNA duplexes for human VEGFR-1 (Cat No. sc-29319), VEGFR-2 (Cat No. sc-29318), and Prx IV (Cat. No. sc-40835) was purchased from Santa Cruz Biotechnology. The sequence of siRNA specific to human NOX4 was 5′-[…]-3′ (SEQ ID NO. 13). Human caveolin-1 siRNA, 5′-[…]-3′ (SEQ ID NO. 14) was purchased from Qiagen. Unless otherwise stated, the endothelial cells (ECs) were transfected with the siRNA duplexes for 24 hrs using lipofectamine RNAi MAXTM (Invitrogen). Then, the cells were serum-starved for an additional 18 hrs in media containing 0.5% fetal bovine serum before VEGF stimulation.
(§1) For immunoblotting, cell lysates or the immunoprecipitates were mixed with 5× Laemmli sample buffer and boiled for 5 minutes. The samples were separated on a SDS denaturing gel and then electrophoretically transferred onto nitrocellulose membranes, which were subsequently subjected to immunoblotting. In order to block non-specific binding, the membrane was reacted with TBS (Tris-buffered saline; TBST) containing 0.5% Tween-20 and 5% nonfat milk at room temperature for 1 hour. The above described blots were reacted with each primary antibody in TBST containing 5% nonfat milk or BSA at 4° C. for overnight. After washing with TBST, the blots were reacted with horseradish peroxidase-conjugated goat anti-mouse immunoglobulin (IgG; 1:5000 dilution) or goat anti-rabbit IgG (1:3000 dilution) at room temperature for 45 minutes. Protein bands were detected using an Amersham ECLTM detection system (GE healthcare). When necessary, the membranes were stripped by shaking them for 60 minutes at 37° C. in 67 mM Tris (pH 6.7), 2% SDS, 100 mM 2-mercaptoethanol and reprobed. with the appropriate pan antibody.

HAECs = assay: VEGF-induced tube formation on Matrigel; assay type: cell-based, human; conditions: HAECs expressing mVEGFR-2 WT or C1206S; 1 μM pretreated for 1 hr before VEGF
Method: For tube formation, the HAECs (50,000 cells/well) were placed on 12-well culture dishes coated with growth factor-reduced Matrigel matrix (BD Bioscience, cat #354230). Cells were cultured for 18 hrs in the EBM-2 media containing 0.5% serum medium in the presence or absence of VEGF-A (25 ng/mL). Thereafter, the cell images were taken from five random visual fields per sample and the total length of the tubes were quantitatively analyzed using an Image-Pro Plus version 6.2 (Media Cybernetics).

2-cys Prxs = conditions: HAECs
Method: as §1

T1 sequence (P35968 20-1356): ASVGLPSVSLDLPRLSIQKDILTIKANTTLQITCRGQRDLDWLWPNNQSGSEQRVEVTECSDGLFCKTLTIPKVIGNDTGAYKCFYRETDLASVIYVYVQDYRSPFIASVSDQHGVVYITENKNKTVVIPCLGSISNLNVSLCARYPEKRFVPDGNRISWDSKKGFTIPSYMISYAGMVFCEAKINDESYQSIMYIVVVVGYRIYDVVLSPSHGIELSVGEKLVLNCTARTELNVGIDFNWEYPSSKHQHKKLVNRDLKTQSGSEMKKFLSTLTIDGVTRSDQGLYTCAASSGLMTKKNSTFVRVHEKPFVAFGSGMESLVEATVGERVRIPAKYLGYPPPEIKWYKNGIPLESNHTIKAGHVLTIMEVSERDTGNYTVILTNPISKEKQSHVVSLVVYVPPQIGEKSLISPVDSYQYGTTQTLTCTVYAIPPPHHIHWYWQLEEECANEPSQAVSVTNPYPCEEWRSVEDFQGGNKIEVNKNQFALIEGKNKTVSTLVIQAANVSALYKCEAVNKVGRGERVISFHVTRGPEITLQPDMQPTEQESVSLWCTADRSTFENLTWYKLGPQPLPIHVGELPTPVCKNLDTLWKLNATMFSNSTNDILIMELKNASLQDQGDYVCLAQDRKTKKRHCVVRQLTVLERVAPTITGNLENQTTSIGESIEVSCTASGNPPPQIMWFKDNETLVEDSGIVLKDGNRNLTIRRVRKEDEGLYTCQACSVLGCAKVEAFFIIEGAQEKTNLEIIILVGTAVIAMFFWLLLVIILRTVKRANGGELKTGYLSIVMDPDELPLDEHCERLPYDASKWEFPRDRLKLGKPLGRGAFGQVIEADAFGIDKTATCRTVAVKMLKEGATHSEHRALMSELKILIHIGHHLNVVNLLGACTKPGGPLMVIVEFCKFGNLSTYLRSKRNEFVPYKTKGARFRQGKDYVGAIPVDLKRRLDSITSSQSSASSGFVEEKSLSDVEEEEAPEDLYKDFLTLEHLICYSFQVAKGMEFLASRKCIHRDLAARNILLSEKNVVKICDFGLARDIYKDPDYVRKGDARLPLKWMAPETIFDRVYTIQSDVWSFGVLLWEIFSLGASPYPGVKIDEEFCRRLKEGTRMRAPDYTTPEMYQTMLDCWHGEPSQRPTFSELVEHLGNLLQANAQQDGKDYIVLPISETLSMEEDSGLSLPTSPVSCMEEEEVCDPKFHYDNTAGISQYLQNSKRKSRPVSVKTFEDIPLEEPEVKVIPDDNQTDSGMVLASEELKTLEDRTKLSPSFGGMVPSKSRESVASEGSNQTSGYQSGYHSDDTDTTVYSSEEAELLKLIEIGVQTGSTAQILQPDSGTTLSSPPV

VEGF
increase of ROS on VEGF treatment ([1]; control HAECs): two-fold

O[C@H](CS)[C@H](O)CS (racemic) [DTT, dithiothreitol]
RTK activation abolished by Prx II knockdown or H2O2 treatment (VEGFR-2 RTK; VEGFR-2 immunoprecipitated from HAECs, incubated 10 minutes): fully restored

5′-GUCAACAUCCAGCUGUACC-3′ [NOX4 siRNA]
level of ROS/H2O2 elevated by the Prx II knockdown [1]: background level | VEGFR-2 activation in response to VEGF in Prx II knockdown cells (VEGF-VEGFR-2 signaling): completely rescued

Cc1cc(C)c(/C=C2\C(=O)Nc3ccccc32)[nH]1 [SU5416]
tube formation by VEGFR-2 WT and C1206S mutant (HAECs): completely blocked

OO [H2O2, hydrogen peroxide]
VEGF-dependent induction of VEGFR-2 RTK activation after pretreatment (VEGFR-2 RTK; HAECs pretreated at various concentrations): suppressed VEGF-dependent induction of VEGFR-2 RTK activation in a dose-dependent manner | hyperoxidation of 2-cys Prxs (2-cys Prxs; micromolar concentrations up to 100 μM, 10 minutes): did not induce hyperoxidation | hyperoxidation of 2-cys Prxs (2-cys Prxs; millimolar concentration (1 mM)): only slightly induced the hyperoxidation of Prx I and Prx III, but not Prx II

5′-GCAUCAACUUGCAGAAAGAUU-3′ [caveolin-1 siRNA]
VEGFR-2 activation in response to VEGF in Prx II knockdown cells (VEGF-VEGFR-2 signaling): no longer affected by the Prx II knockdown

methyl-β-cyclodextrin [MβCD]
VEGFR-2 activation in response to VEGF in Prx II knockdown cells (VEGF-VEGFR-2 signaling): restored VEGFR-2 activation

B1: catalase: polyethylene glycol (PEG)-conjugated catalase, an enzyme that reduces H2O2 to H2O (protein, UniProt P00432 2-527, looked up)
Catalase: ADNRDPASDQMKHWKEQRAAQKPDVLTTGGGNPVGDKLNSLTVGPRGPLLVQDVVFTDEMAHFDRERIPERVVHAKGAGAFGYFEVTHDITRYSKAKVFEHIGKRTPIAVRFSTVAGESGSADTVRDPRGFAVKFYTEDGNWDLVGNNTPIFFIRDALLFPSFIHSQKRNPQTHLKDPDMVWDFWSLRPESLHQVSFLFSDRGIPDGHRHMNGYGSHTFKLVNANGEAVYCKFHYKTDQGIKNLSVEDAARLAHEDPDYGLRDLFNAIATGNYPSWTLYIQVMTFSEAEIFPFNPFDLTKVWPHGDYPLIPVGKLVLNRNPVNYFAEVEQLAFDPSNMPPGIEPSPDKMLQGRLFAYPDTHRHRLGPNYLQIPVNCPYRARVANYQRDGPMCMMDNQGGAPNYYPNSFSAPEHQPSALEHRTHFSGDVQRFNSANDDNVTQVRTFYLKVLNEEQRKRLCENIAGHLKDAQLFIQKKAVKNFSDVHPEYGSRIQALLDKYNEEKPKNAVHTYVQHGSHLSAREKANL
modifications: PEG
notes: polyethylene glycol (PEG)-conjugated catalase, an enzyme that reduces H2O2 to H2O
level of ROS/H2O2 elevated by the Prx II knockdown [1]: background level | VEGF-dependent tyrosine phosphorylation (VEGF-VEGFR-2 signaling; HAECs pretreated with PEG-catalase, increasing doses, 18 hours): gradually decreased
